Laboratory results: patent US4180669A, “2-(N-phenethyl-4-piperidino)-5-pentyl resorcinol” (Abbott Laboratories, priority 1978, dated 1979)
Where a name gives a salt, the structure may show the parent alone. Read-outs that look alike come from different tables or passages of the source.

Test system: pylorous ligated rats
Assay: Antisecretory activity in the pylorous ligated rat model
Type: in vivo, male Sprague-Dawley rats
Details: for inhibition in vivo at 50 mg/kg / inhibition in vivo at 12.5 mg/kg / inhibition in vivo at 25 mg/kg / inhibition in vivo at 100 mg/kg: Rattus norvegicus, 4 h; for inhibition in vivo at 12.5 mg/kg: oral dose 12.5 mg/kg; for inhibition in vivo at 25 mg/kg: oral dose 25 mg/kg; for inhibition in vivo at 100 mg/kg: oral dose 100 mg/kg
Experimental: To determine the antisecretory activity of the present compounds, the compounds were tested for such activity in pylorous ligated rats. In this test, male Sprague-Dawley rats weighing 170-190 g. were fasted for 24 hours. Water was allowed ad libitum. All groups were comprised of six rats. […] Water was withheld after drug administration. Ligation of the pyrloric sphincter was performed under ether anesthesia, and four hours after ligation the animals were sacrificed with CO2. The stomach was dissected out and the contents were expelled into a graduated centrifuge tube. The samples were centrifuged and the volume, less debris, was measured. Sample aliquots were titrated with 0.05 N NaOH to determine acid concentration. Pepsin activity was determined on an auto analyzer using hemoglobin as the substrate by the method of Anson. Group means for volume, acid and pepsin concentrations, and pepsin outputs were compared for statistically significant differences from control means by Student's t-test.

[1] = oral dose 50 mg/kg, negative sign means stimulated, read-out: Percent inhibition of pepsin
[2] = oral dose 50 mg/kg, negative sign means stimulated, read-out: Percent inhibition of pepsin output
[3] = oral dose 50 mg/kg, read-out: Percent inhibition of acid output
[4] = oral dose 50 mg/kg, read-out: Percent inhibition of acidity
[5] = oral dose 50 mg/kg, read-out: Percent inhibition of volume
[6] = negative sign means stimulated, read-out: Percent inhibition of pepsin
[7] = read-out: Percent inhibition of acid output
[8] = read-out: Percent inhibition of acidity
[9] = read-out: Percent inhibition of pepsin output
[10] = read-out: Percent inhibition of volume
[11] = oral dose 50 mg/kg, negative sign means stimulated

Compound	inhibition in vivo at 50 mg/kg [1] [%]	inhibition in vivo at 50 mg/kg [2] [%]	inhibition in vivo at 50 mg/kg [3] [%]	inhibition in vivo at 50 mg/kg [4] [%]	inhibition in vivo at 50 mg/kg [5] [%]	also measured
CC(C)c1cc(O)c(C2=CCN(C(C)C)CC2)c(O)c1 [XIII, 2-(N-Isopropyl-1,2,3,6-tetrahydro-4-pyridyl)-5-isopropyl resorcinol hydrochloride]	7.1	36.4	37.9	9.7	32	–
CCCCCc1cc(O)c(C2=CCN(C)CC2)c(O)c1 [Example VIII, 2-(N-Methyl-1,2,3,6-tetrahydro-4-pyridyl)-5-pentyl resorcinol hydrochloride]	-2	55.9	74.4	41.5	57.4	–
CC(C)C(C)c1cc(O)c(C2=CCN(C)CC2)c(O)c1 (stereo not shown) [Example VII, 2-(N-Methyl-1,2,3,6-tetrahydro-4-pyridyl)-5-(1,2-dimethylpropyl) resorcinol hydrochloride]	-24.6	-9.9	15.8	7.1	9.5	–
CCCCCc1cc(O)c(C2CCN(CCc3ccccc3)CC2)c(O)c1 [Example XXI, 2-(N-Phenethyl-4-piperidino)-5-pentyl resorcinol hydrochloride]	-6.2	56.4	64.1	15	58.2	inhibition in vivo at 12.5 mg/kg [6]: 11.4%; inhibition in vivo at 12.5 mg/kg [7]: 0.5%; inhibition in vivo at 12.5 mg/kg [8]: -4%; inhibition in vivo at 12.5 mg/kg [9]: 19.9%; inhibition in vivo at 12.5 mg/kg [10]: 6.5%; inhibition in vivo at 25 mg/kg [6]: 11.4%; inhibition in vivo at 25 mg/kg [7]: 32.7%; inhibition in vivo at 25 mg/kg [8]: 5.8%; inhibition in vivo at 25 mg/kg [9]: 41.4%; inhibition in vivo at 25 mg/kg [10]: 31.2%; inhibition in vivo at 100 mg/kg [6]: -12.7%; inhibition in vivo at 100 mg/kg [7]: 66.6%; inhibition in vivo at 100 mg/kg [8]: 16.1%; inhibition in vivo at 100 mg/kg [9]: 60.6%; inhibition in vivo at 100 mg/kg [10]: 61.8%
CCCCCC(C)C(C)c1cc(O)c(C2=CCN(C)CC2)c(O)c1 (stereo not shown) [Example X, 2-(N-Methyl-1,2,3,6-tetrahydro-4-pyridyl)-5-(1,2-dimethylheptyl) resorcinol]	41.5	48	69.3	66.8	7.7	inhibition in vivo at 12.5 mg/kg [6]: 23.4%; inhibition in vivo at 12.5 mg/kg [7]: 10.8%; inhibition in vivo at 12.5 mg/kg [8]: 13.1%; inhibition in vivo at 12.5 mg/kg [9]: 22.6%; inhibition in vivo at 12.5 mg/kg [10]: -2.8%; inhibition in vivo at 25 mg/kg [6]: 45.1%; inhibition in vivo at 25 mg/kg [7]: 22.9%; inhibition in vivo at 25 mg/kg [8]: 20.9%; inhibition in vivo at 25 mg/kg [9]: 46.4%; inhibition in vivo at 25 mg/kg [10]: 1.4%; inhibition in vivo at 100 mg/kg [6]: 63%; inhibition in vivo at 100 mg/kg [7]: 69%; inhibition in vivo at 100 mg/kg [8]: 68.4%; inhibition in vivo at 100 mg/kg [9]: 63.2%; inhibition in vivo at 100 mg/kg [10]: 1.7%
2-(N-Methyl-1,2,3,4-tetrahydro-4-pyridyl)-5-(methyl) resorcinol [IX]	–	–	–	–	–	Percent inhibition of acid output (oral dose 50 mg/kg): 31.7%; Percent inhibition of acidity (oral dose 50 mg/kg): 12.1%; Percent inhibition of volume (oral dose 50 mg/kg): 21.9%; Percent inhibition of pepsin [11]: -7.2%; Percent inhibition of pepsin output [11]: 17.0%
CCCCCC(C)C(C)c1cc(O)c(C2CCNCC2)c(OC)c1 (stereo not shown) [Example XXX, 2-(4-Piperidino)-3-methoxy-5-(1,2-dimethylheptyl)phenol hydrochloride]	–	–	34.7	39.9	-8.9	–
CCCCCC(C)C(C)c1cc(O)c(C2CCN(CCc3ccccc3)CC2)c(O)c1 (stereo not shown) [Example XXII, 2-(N-phenethyl-4-piperidino)-5-(1,2-dimethylheptyl) resorcinol hydrochloride]	-7.1	30.9	37.6	8.5	37.3	–
CCCCCC(C)C(C)c1cc(O)c(C2=CCN(Cc3ccccc3)CC2)c(OC)c1 (stereo not shown) [Example XXVII, 2-(N-Benzyl-1,2,3,6-tetrahydro-4-pyridyl)-3-methoxy-5-(1,2-dimethylheptyl)phenol hydrochloride]	12.1	-8.6	-27.8	-5.6	–	–
CC(C)c1cc(O)c(C2=CCN(Cc3ccccc3)CC2)c(O)c1 [Example XI, 2-(N-Benzyl-1,2,3,6-tetrahydro-4-pyridyl)-5-isopropyl resorcinol hydrochloride]	-36	47.1	68.2	22.8	63.8	–
CCCCCc1cc(O)c(C2CC3CCC(C2)N3C)c(O)c1 (stereo not shown) [XXIV, 2-(N-Methyl-2,6-ethylidene-4-piperidino)-5-pentyl resorcinol hydrochloride]	21	22.2	0.9	-2.5	2.8	–
